Measurements published in patent US7955838B2, “Methods and device for adhesive control of internal cell organisation” (Institut Curie, priority 2003, dated 2011).

Test system: HeLa cells stably expressing centrin1-GFP
Assay: Nocodazole treatment of premitotic cells on [L] fibronectin micropatterns (centrosome separation, cell rounding, spindle orientation)
Assay type: cell-based, human
Settings: for Distribution of spindle orientations after nocodazole wash-out: after wash-out of 10^−7 M nocodazole, [L] patterns, versus non-treated cells
Experimental: HeLa, human epithelial cells, stably expressing centrin1-GFP (Piel et al. J. Cell Biol. 149, 317-329 (2000), were cultured in Dulbecco Modified Eagle Medium with 10% foetal calf serum, 1% penicillin and streptomycin, and 1% glutamine at 37° C. Cells were synchronised using a double thymidine block and then removed from their flask using […], 10 minutes at 37° C. After removing the […] by centrifugation, cells were resuspended in DMEM with 1% FCS and deposited on the printed coverslip at a density of 10^4 cells/cm^2. The inventors used an inverted Leica DMIRBE microscope with an heated and motorized stage combined with a home-made plastic cell chamber to hold the printed glass coverslip, which was covered by a porous membrane allowing CO2 buffering at pH-7.4. Metamorph software (Universal Imaging) was used for image acquisition. Numerous cell divisions were followed using a time-lapse phase contrast on a multi-fields acquisition at a frame rate of one picture every 3 minutes with a 10× magnitude objective. Centrosome movements were followed during mitosis with a 63× apochromat objective lens (Leica) using fluorescent Z acquisitions through a green filter and a phase contrast picture of the cell bottom every 5 minutes. A software has been developed. This software was able to automatically recognise a single fluorescent micropattern within a field and detect the presence of a single cell attached to it. Individual cell divisions were extracted from the 10× phase contrast time-lapse recordings and every picture automatically segmented using a wavelet decomposition and fitted with an ellipse (FIG. 1b). The moment of cell elongation in anaphase was precisely detected, as the shape factor, defined as the ellipse length ratio, suddenly dropped from more than 0.9 to less than 0.6 (FIG. 1c). The angle between the major axis of the ellipse, corresponding to spindle orientation, and the vertical reference of the pattern oriented as shown on FIG. 2 was then recorded. The position of the centre of the round mitotic cell with respect to the pattern was also automatically recorded 6 minutes before anaphase.[…]. The mechanisms by which the premitotic actin network is remodeled during mitotic cortical retraction and the correlative formation of actin-rich retraction fibers are not fully understood. In order to address whether spindle assembly had to take place during the remodelling of the actin network to be correctly oriented, centrosomes were prevented from separating during cell retraction on [L] patterns by treating premitotic cells with 10^-7 M nocodazole during one hour. […] After nocodazole washout, centrosomes separated and formed a bipolar spindle (FIG. 4C). […] RFs are good candidates for guiding spindle orientation as they are maintained despite nocodazole treatment.

[1] = 10^−7 M nocodazole during one hour, premitotic cells on [L] patterns

COC(=O)Nc1nc2ccc(C(=O)c3cccs3)cc2[nH]1 [nocodazole]
Effect on cell rounding [1]: did not block cell rounding
Effect on mitosis / centrosome separation [1]: blocked cells in metaphase with unseparated centrosomes
Distribution of spindle orientations after nocodazole wash-out: still preferentially orientated parallel to the hypotenuse of the triangle
Distribution of spindle orientations after nocodazole wash-out (listed as NZ): spindles are still able to mainly orient in round cell bodies as in control cells
Retracting fibers (RFs) under nocodazole treatment (nocodazole-treated mitotic cells on [L] patterns): maintained
